Results published in PMC7751408, “Production, purification and biochemical characterisation of a novel lipase from a newly identified lipolytic bacterium Staphylococcus caprae NCU S6” (Journal of Enzyme Inhibition and Medicinal Chemistry, 2020).

Tested on: T1, SCNL (lipase from Staphylococcus caprae NCU S6)
T1 construct: native extracellular enzyme purified from culture supernatant of the source strain (ammonium sulphate, ultrafiltration, Sephadex G-50, DEAE-Sepharose); ~87 kDa by SDS-PAGE
Experiment: colorimetric p-nitrophenol release at […] nm, Lineweaver-Burk
Type: biochemical
Conditions: 0.1-5.0 mM p-NPP, optimum conditions (optimal pH 9.0 and 40 °C); free enzyme

## CCCCCCCCCCCCCCCC(=O)Oc1ccc([N+](=O)[O-])cc1 [p-nitrophenyl palmitate]
  Km: 695 µM
